Consider seven compounds from US11845748B2, “Bicyclic pyridine N-oxide derivatives useful as a factor XIa inhibitors” (Janssen Pharmaceutica NV, priority 2021, dated 2023).

The target of experiment [1] is Factor XIa (Homo sapiens, UniProt P03951). The experiment is described as follows: Factor XIa inhibition assay utilizing a fluorophore-quencher pair peptide substrate (FLINT). Type of experiment: biochemical. The conditions noted are these: kinetic reads at 5 min intervals over 30 min; 30 min preincubation; 5Fam-KLTRAETV-K5Tamra substrate; read-out: FXIa (KIN) IC50. An excerpt:
Biological Example 1: Factor XIa Inhibition Assay Utilizing a Fluorophore-Quencher Pair Peptide Substrate
A fluorescence intensity (FLINT) based assay was used to monitor inhibition of Factor XIa. The peptide substrate, 5Fam-KLTRAETV-K5Tamra (purchased from New England Peptide) was chosen based on the […]. Conversion of zymogen […]. The custom peptide used in this assay was based on the Arg146 cleavage site of FXI. The peptide substrate was designed with a fluorophore-quencher pair, where the fluorescence is quenched until FXIa cleaves the 8-mer peptide after the Arg residue. The substrate KM was fit to a substrate inhibition model whereby kcat=0.86 s^−1, KM=12.4 μM, Ki=61.6 μM with an enzymatic efficiency, and kcat/KM=69523 M^−1s^−1.
The Factor XIa FLINT assay was used with the following 5Fam-KLTRAETV-K5Tamra assay buffer: 50 mM Tris, pH 7.5, 100 mM NaCl, 5 mM CaCl2, 0.1 mg/mL BSA, 0.03% CHAPS. Assay buffer was prepared by mixing all ingredients fresh. 5Fam-KLTRAETV-K5Tamra peptide substrate was first prepared at 10 mM in 100% DMSO, then diluted to 3 mM in 100% DMSO. Assay buffer was then added directly to the 3 mM stock of substrate to prepare the 30 μM 2× working concentration (15 μM final concentration). The 2× Factor XIa stock solution was prepared by diluting 6.562 μM stock in 1× assay buffer for a 200 pM working stock solution (100 pM final concentration).
Test compound(s) were run in an 11-point, 3-fold serial dilution with a final top compound concentration of 100 nM. Final DMSO in assay was 2%. FXIa was preincubated with compound for 30-minutes and then substrate was added to initiate the reaction. The assay was run with either end point (EP) reads at 30 min or kinetic (KIN) reads at 5 min intervals over 30 minutes. The time course was linear using 100 μM FXIa greater than 30 minutes. More specifically, the assay was run as follows: • 100 nL of 0.01 mM test compound was dispensed into black 384-well non-binding Greiner BioOne 784900 plate for 0.1 μM final concentration; • 5 μL of 1× assay buffer was dispensed to column 24 (low control) and 5 μL 2× Factor XIa solution was dispensed to columns 1-23 (column 23 high control); • the plate was centrifuged with a “cover” plate at 500 rpm for 1 min the plate was pre-incubated for 30 minutes at room temperature with plate covered; • 5 μL of 2× 5Fam-KLTRAETV-K5Tamra peptide substrate was dispensed into the entire plate, columns 1-24; • the plate was centrifuged with a “cover” plate at 500 rpm for 1 min; • the plate was read monitoring fluorescence intensity on the BMG PHERAStar at room temperature, using fluorescence module 485 nm/520 nm.
Percent inhibition (IC50) curves were generated per compound tested, and data was analyzed using a 4-parameter logistic fit using GeneData Screener. The relative fluorescence unit (RFU) values were normalized to percent inhibition using the following equation: % inhibition=((HC−LC)−(compound−LC)/(HC−LC))*100 where LC—low control=mean signal of no Factor XIa or 100% inhibition of Factor XIa; HC—high control=mean signal of Factor XIa+5Fam-KLTRAETV-K5Tamra peptide substrate with DMSO only.
(§1) An 11-point dose response curve for the test compound(s) was generated using GENDATA to determine IC50 value based on the following equation: Y=Bottom+(Top−Bottom)/(1+10^((log IC50−X)*HillSlope))
where Y is the % inhibition in the presence of X inhibitor concentration, Top=high control=mean signal of Factor XIa+5Fam-KLTRAETV-K5Tamra peptide substrate with DMSO only; Bottom=low control−mean signal of no Factor XIa or 100% inhibition of Factor XIa; HillSlope—Hill coefficient; and IC50=concentration of compound with 50% inhibition in relation to top/high control. […]

The target in experiment [2] is human plasma kallikrein (Homo sapiens, UniProt P03952). Nature of the experiment: Kallikrein inhibition assay utilizing a quenched AMC peptide substrate (FLINT). The experiment is classed as biochemical. The conditions noted are these: kinetic reads at 5 min intervals over 30 min; 30 min preincubation; Z-Gly-Pro-Arg-AMC substrate; read-out: Kallikrein (KIN) IC50. How it is done:
Biological Example 2: Kallikrein Inhibition Assay Utilizing a Quenched AMC Peptide Substrate
A fluorescence intensity (FLINT) based assay was used to monitor inhibition of human plasma kallikrein. The peptide substrate, Z-Gly-Pro-Arg-AMC (Purchased from Bachem; Catalog #I-1150) was chosen based on its relatively low KM for kallikrein which enables running the assay at lower substrate concentrations to control background fluorescence. The kinetic parameters for this substrate were determined by fitting titration data to the Michaelis-Menten equation yielding a KM=40 μM, kcat=0.76 s^−1, and kcat/KM=18932 M^−1s^−1.
The Kallikrein FLINT assay was used with the following Z-Gly-Pro-Arg-AMC assay buffer: 50 mM Tris, pH 7.5, 100 mM NaCl, 5 mM CaCl2, 0.1 mg/mL BSA, 0.03% CHAPS. Assay buffer was prepared by mixing all ingredients fresh. 2× Z-Gly-Pro-Arg-AMC peptide substrate was prepared by diluting 10 mM stock into 1× assay buffer for a 100 μM working concentration (50 μM final concentration). The 2× kallikrein stock solution was prepared by diluting 14.76 μM stock in 1× assay buffer for a 4 nM working stock solution (2 nM final concentration).
Test compound(s) were run in an 11-point, 3-fold serial dilution with a final top compound concentration of 1 μM. Final DMSO in assay was 2%. Plasma kallikrein was pre-incubated for 30-minute with compound and then 50 μM substrate was added to initiate the reaction. The assay was run with kinetic (KIN) reads at 5 min intervals over 30 minutes. The time course was linear using 2 nM kallikrein greater than 30 minutes. More specifically, the assay was run as follows: • 100 nL of 0.1 mM test compound was dispensed into black 384-well non-binding Greiner BioOne 784900 plate for 1 μM final concentration; • 5 μL of 1× assay buffer was dispensed to columns 24 (low control) and 5 μL 2× human kallikrein enzyme solution was dispensed to columns 1-23 (column 23 high control); • the plate was centrifuged with a “cover” plate at 500 rpm for 1 min the plate was pre-incubated for 30 minutes at room temperature with plate covered; • 5 μL of 2× Z-Gly-Pro-Arg-AMC peptide substrate was dispensed into the entire plate, columns 1-24; • the plate was centrifuged with a “cover” plate at 500 rpm for 1 min; • the plate was read monitoring fluorescence intensity on the BMG PHERAStar at room temperature, using fluorescence module 340 nm/440 nm.
Percent inhibition (IC50) curves were generated per compound tested, and data was analyzed using a 4-parameter logistic fit using GeneData Screener. The relative fluorescence unit (RFU) values were normalized to percent inhibition using the following equation: % inhibition=((HC−LC)−(compound−LC)/(HC−LC))*100
where LC—low control=mean signal of […] 100% inhibition of human kallikrein enzyme; HC—high control=mean signal of […]+Z-Gly-Pro-Arg-AMC peptide substrate with DMSO only.
as §1
where Y is the % inhibition in the presence of X inhibitor concentration, Top=high control=mean signal of human kallikrein enzyme+Z-Gly-Pro-Arg-AMC peptide substrate with DMSO only; Bottom=low control−mean signal of no human kallikrein enzyme or 100% inhibition of human kallikrein enzyme; HillSlope—Hill coefficient; and IC50=concentration of compound with 50% inhibition in relation to top/high control.
Representative compounds of formula (I) of the present invention were tested according to the procedure described in Biological Example 1 and Biological Example 2 above, with results as listed in Table 2, below. Results listed in the (ER) column were measured using endpoint reads where a single fluorescence reading was measured for each well at a 30 min timepoint. […]

Sequence of Factor XIa (P03951 388-625 limits assumed): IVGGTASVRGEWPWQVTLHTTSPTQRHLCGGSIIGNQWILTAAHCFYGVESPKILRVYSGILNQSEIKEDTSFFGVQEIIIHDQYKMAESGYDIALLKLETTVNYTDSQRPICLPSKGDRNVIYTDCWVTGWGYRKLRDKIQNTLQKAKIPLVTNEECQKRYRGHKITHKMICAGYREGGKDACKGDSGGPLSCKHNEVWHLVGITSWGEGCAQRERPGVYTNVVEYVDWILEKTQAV
Sequence of Factor XIa (P03951 19-387 partner limits assumed): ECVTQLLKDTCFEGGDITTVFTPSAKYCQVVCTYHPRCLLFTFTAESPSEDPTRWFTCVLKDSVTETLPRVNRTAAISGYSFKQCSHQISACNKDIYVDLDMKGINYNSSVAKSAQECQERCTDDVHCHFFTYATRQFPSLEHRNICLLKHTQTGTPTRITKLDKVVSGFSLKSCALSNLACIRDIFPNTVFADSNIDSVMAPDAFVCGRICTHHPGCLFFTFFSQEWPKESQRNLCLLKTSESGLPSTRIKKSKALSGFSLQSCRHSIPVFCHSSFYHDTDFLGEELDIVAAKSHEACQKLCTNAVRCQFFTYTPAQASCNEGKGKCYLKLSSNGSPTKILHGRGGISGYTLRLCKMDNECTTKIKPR
Sequence of human plasma kallikrein (P03952 391-638 limits assumed): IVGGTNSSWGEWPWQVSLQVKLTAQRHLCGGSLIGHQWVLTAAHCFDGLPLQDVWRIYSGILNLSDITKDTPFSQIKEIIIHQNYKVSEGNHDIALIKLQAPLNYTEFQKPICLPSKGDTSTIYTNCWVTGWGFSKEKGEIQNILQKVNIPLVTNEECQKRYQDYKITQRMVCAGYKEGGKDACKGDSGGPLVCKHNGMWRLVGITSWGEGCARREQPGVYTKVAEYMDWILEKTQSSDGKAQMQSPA
Sequence of human plasma kallikrein (P03952 20-390 partner limits assumed): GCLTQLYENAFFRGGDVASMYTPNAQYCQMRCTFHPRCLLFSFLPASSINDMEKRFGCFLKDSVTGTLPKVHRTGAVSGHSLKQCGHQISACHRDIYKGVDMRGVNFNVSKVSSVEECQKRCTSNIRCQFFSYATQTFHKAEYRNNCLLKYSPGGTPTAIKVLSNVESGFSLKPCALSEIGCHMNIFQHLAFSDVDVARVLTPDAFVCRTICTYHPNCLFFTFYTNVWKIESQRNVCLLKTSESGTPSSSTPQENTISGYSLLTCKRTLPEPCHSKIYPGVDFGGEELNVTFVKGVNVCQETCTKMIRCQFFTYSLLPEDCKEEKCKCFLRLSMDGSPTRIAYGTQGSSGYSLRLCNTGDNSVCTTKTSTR

What is called IC50 is the concentration that inhibits the measured activity by half. On to `NC(=O)c1ccc(-c2cnn(C3CCc4cc(-c5c(-n6cc(C(F)(F)F)nn6)ccc(Cl)c5F)c[n+]([O-])c43)c2)cc1F` (single isomer, unassigned) [ID No. 27, (R*)7-(4-(4-Carbamoyl-3-fluorophenyl)-1H-pyrazol-1-yl)-3-(3-chloro-2-fluoro-6-(4-(trifluoromethyl)-1H-1,2,3-triazol-1-yl)phenyl)-6,7-dihydro-5H-cyclopenta[b]pyridine 1-oxide], for which the IC50 in experiment [1] was greater than 100 nM; in experiment [2], 240 nM.
Consider `NC(=O)c1ccc(-c2cnn(C3CCc4cc(-c5c(-n6cc(C(F)(F)F)nn6)ccc(Cl)c5F)c[n+]([O-])c43)c2)cc1F` (single isomer, unassigned) [ID No. 28, (S*)-7-(4-(4-Carbamoyl-3-fluorophenyl)-1H-pyrazol-1-yl)-3-(3-chloro-2-fluoro-6-(4-(trifluoromethyl)-1H-1,2,3-triazol-1-yl)phenyl)-6,7-dihydro-5H-cyclopenta[b]pyridine 1-oxide], for which the values for the IC50 in experiment [1] and in experiment [2] were 37 nM and 67 nM, respectively.
For `Nc1ccc(-c2cnn(C3CCCc4cc(-c5c(-n6cnnn6)ccc(Cl)c5F)c[n+]([O-])c43)c2)c(F)n1` (single isomer, unassigned) [ID No. 31, (R*)-8-(4-(6-Amino-2-fluoropyridin-3-yl)-1H-pyrazol-1-yl)-3-(3-chloro-2-fluoro-6-(1H-tetrazol-1-yl)phenyl)-5,6,7,8-tetrahydroquinoline 1-oxide], in that order: 40 nM and 987 nM.
On the same counts, the results for `Nc1ccc(-c2cnn(C3CCCc4cc(-c5c(-n6cnnn6)ccc(Cl)c5F)c[n+]([O-])c43)c2)c(F)n1` (single isomer, unassigned) [ID No. 32, (S*)-8-(4-(6-Amino-2-fluoropyridin-3-yl)-1H-pyrazol-1-yl)-3-(3-chloro-2-fluoro-6-(1H-tetrazol-1-yl)phenyl)-5,6,7,8-tetrahydroquinoline 1-oxide] are greater than 10000 nM and greater than 10000 nM.
Turning to `COC(=O)Nc1ccc(-c2cn(C3CCc4cc(-c5c(-n6cnnn6)ccc(Cl)c5F)c[n+]([O-])c43)cn2)cc1` (centres unmarked) [ID No. 2, 3-(3-Chloro-2-fluoro-6-(1H-tetrazol-1-yl)phenyl)-7-(4-(4-((methoxycarbonyl)amino)phenyl)-1H-imidazol-1-yl)-6,7-dihydro-5H-cyclopenta[b]pyridine 1-oxide], the results for the IC50 in experiment [1] and in experiment [2] were 24 nM and 461 nM, respectively.
For `Cn1nncc1-c1cnn([C@H]2CCc3cc(-c4c(-n5cnnn5)ccc(Cl)c4F)c[n+]([O-])c32)c1` [ID No. 25, (S)-3-(3-Chloro-2-fluoro-6-(1H-tetrazol-1-yl)phenyl)-7-(4-(1-methyl-1H-1,2,3-triazol-5-yl)-1H-pyrazol-1-yl)-6,7-dihydro-5H-cyclopenta[b]pyridine 1-oxide], the IC50 in experiment [1] and in experiment [2] was greater than 10000 nM each time.
Turning to `Cn1nncc1-c1cnn([C@@H]2CCc3cc(-c4c(-n5cnnn5)ccc(Cl)c4F)c[n+]([O-])c32)c1` [ID No. 26, (R)-3-(3-Chloro-2-fluoro-6-(1H-tetrazol-1-yl)phenyl)-7-(4-(1-methyl-1H-1,2,3-triazol-5-yl)-1H-pyrazol-1-yl)-6,7-dihydro-5H-cyclopenta[b]pyridine 1-oxide], the IC50 in experiment [1] was found to be 42 nM; in experiment [2], 4040 nM.
